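Results reflect a 48-hour exposure of cells in 96-well plates to compound at five concentrations. TGI is the concentration that stops growth completely.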
How the values were obtained:
Test in all cases: NCI anticancer screen, dose series, 48 h
ACHN renal = test system: ACHN renal
K-562 leukemia = test system: K-562 leukemia
LOX IMVI melanoma = test system: LOX IMVI melanoma
MCF7 breast = test system: MCF7 breast
NCI-H23 lung = test system: NCI-H23 lung
OVCAR-5 ovarian = test system: OVCAR-5 ovarian
OVCAR-8 ovarian = test system: OVCAR-8 ovarian
SF-539 CNS = test system: SF-539 CNS
T-47D breast = test system: T-47D breast
U251 CNS = test system: U251 CNS
UO-31 renal = test system: UO-31 renal
DMS 273 small cell lung = test system: DMS 273 small cell lung
KM20L2 colon = test system: KM20L2 colon
M19-MEL melanoma = test system: M19-MEL melanoma

COC(=O)NCCc1[nH]nc2c1C(=O)C=C(Nc1ccccc1OC)C2=O
TGI (ACHN renal): > 100 µM | TGI (K-562 leukemia): > 100 µM | TGI (LOX IMVI melanoma): 69.9 µM | TGI (MCF7 breast): 38.7 µM | TGI (NCI-H23 lung): 32.7 µM | TGI (OVCAR-5 ovarian): > 100 µM | TGI (OVCAR-8 ovarian): 35.1 µM | TGI (SF-539 CNS): 34.4 µM | TGI (T-47D breast): > 100 µM | TGI (U251 CNS): 72.5 µM | TGI (UO-31 renal): > 100 µM

CC(=O)n1nc(-c2[nH]c(C)c(-c3nn(C(C)=O)c(=S)o3)c2C)oc1=S
TGI (ACHN renal): > 100 µM | TGI (K-562 leukemia): > 100 µM | TGI (LOX IMVI melanoma): > 100 µM | TGI (MCF7 breast): > 100 µM | TGI (NCI-H23 lung): > 100 µM | TGI (OVCAR-5 ovarian): > 100 µM | TGI (OVCAR-8 ovarian): > 100 µM | TGI (SF-539 CNS): > 100 µM | TGI (T-47D breast): > 100 µM | TGI (U251 CNS): > 100 µM | TGI (UO-31 renal): > 100 µM

CC1=CP(=O)(OC(C)C)C=C(C)C1=C(Cl)Cl (stereo not drawn)
TGI (ACHN renal): > 100 µM | TGI (DMS 273 small cell lung): > 100 µM | TGI (K-562 leukemia): > 100 µM | TGI (KM20L2 colon): > 100 µM | TGI (LOX IMVI melanoma): > 100 µM | TGI (M19-MEL melanoma): > 100 µM | TGI (NCI-H23 lung): > 100 µM | TGI (OVCAR-5 ovarian): > 100 µM | TGI (OVCAR-8 ovarian): > 100 µM | TGI (SF-539 CNS): > 100 µM | TGI (U251 CNS): > 100 µM | TGI (UO-31 renal): 27.2 µM

O=C(O[C@H](/C=C/c1ccccc1)P1(=O)N(Cc2ccccc2)[C@H]2CCCC[C@@H]2N1Cc1ccccc1)c1ccccc1
TGI (ACHN renal): > 100 µM | TGI (K-562 leukemia): > 100 µM | TGI (LOX IMVI melanoma): 11.6 µM | TGI (MCF7 breast): > 100 µM | TGI (NCI-H23 lung): 48.3 µM | TGI (OVCAR-5 ovarian): > 100 µM | TGI (OVCAR-8 ovarian): > 100 µM | TGI (SF-539 CNS): > 100 µM | TGI (T-47D breast): 3.86 µM | TGI (U251 CNS): 88.7 µM | TGI (UO-31 renal): 38.3 µM

O=[N+]([O-])c1ccc(C2Nn3c(nnc3-c3cccc([N+](=O)[O-])c3)S2)cc1 (stereo not drawn)
TGI (ACHN renal): > 100 µM | TGI (K-562 leukemia): > 100 µM | TGI (LOX IMVI melanoma): > 100 µM | TGI (MCF7 breast): > 100 µM | TGI (NCI-H23 lung): > 100 µM | TGI (OVCAR-5 ovarian): > 100 µM | TGI (OVCAR-8 ovarian): > 100 µM | TGI (SF-539 CNS): > 100 µM | TGI (T-47D breast): > 100 µM | TGI (U251 CNS): > 100 µM | TGI (UO-31 renal): > 100 µM

CC(=O)Nc1ccc2cc(C#N)c(=O)[nH]c2n1
TGI (ACHN renal): > 100 µM | TGI (K-562 leukemia): > 100 µM | TGI (LOX IMVI melanoma): > 100 µM | TGI (MCF7 breast): > 100 µM | TGI (NCI-H23 lung): > 100 µM | TGI (OVCAR-5 ovarian): > 100 µM | TGI (OVCAR-8 ovarian): > 100 µM | TGI (SF-539 CNS): > 100 µM | TGI (T-47D breast): > 100 µM | TGI (U251 CNS): > 100 µM | TGI (UO-31 renal): > 100 µM

CN1CCOC1(C)c1ccccc1 (stereo not drawn)
TGI (ACHN renal): > 100 µM | TGI (K-562 leukemia): > 100 µM | TGI (LOX IMVI melanoma): > 100 µM | TGI (MCF7 breast): > 100 µM | TGI (NCI-H23 lung): > 100 µM | TGI (OVCAR-5 ovarian): > 100 µM | TGI (OVCAR-8 ovarian): > 100 µM | TGI (SF-539 CNS): > 100 µM | TGI (T-47D breast): > 100 µM | TGI (U251 CNS): > 100 µM | TGI (UO-31 renal): > 100 µM

CC(=O)OC1CCn2c1nc1c2C(=O)C=C(N2CC2)C1=O (stereo not drawn)
TGI (ACHN renal): 0.173 µM | TGI (K-562 leukemia): 4.54 µM | TGI (LOX IMVI melanoma): 0.275 µM | TGI (MCF7 breast): 0.957 µM | TGI (NCI-H23 lung): 1.08 µM | TGI (OVCAR-5 ovarian): 2.61 µM | TGI (OVCAR-8 ovarian): 1.57 µM | TGI (SF-539 CNS): 0.696 µM | TGI (T-47D breast): 2.38 µM | TGI (U251 CNS): 0.853 µM | TGI (UO-31 renal): 0.35 µM

CC12CCC(=O)N1[C@@H](c1ccccc1)[C@@H](c1ccccc1)O2 (stereo partly drawn)
TGI (ACHN renal): > 100 µM | TGI (K-562 leukemia): > 100 µM | TGI (KM20L2 colon): > 100 µM | TGI (LOX IMVI melanoma): > 100 µM | TGI (M19-MEL melanoma): > 100 µM | TGI (OVCAR-5 ovarian): > 100 µM | TGI (OVCAR-8 ovarian): > 100 µM | TGI (SF-539 CNS): > 100 µM | TGI (UO-31 renal): > 100 µM

From PubChem BioAssay (NCI)
